The values below come from patent publication US9006455B2 (Bristol-Myers Squibb Company, priority 2009, dated 2015).

For this assay, the system named is HCV 1b genotype. Nature of the assay: HCV Replicon assay (HCV 1b genotype). The assay is classed as cell-based. Particulars: Hepatitis C virus, HCV 1b genotype replicon. The method, then: An HCV Replicon assay was utilized in the present disclosure, and was prepared, conducted and validated as described in commonly owned PCT/US2006/022197 and in O'Boyle et al., Antimicrob. Agents Chemother., 49(4):1346-1353 (April 2005). Assay methods incorporating luciferase reporters have also been used as described (Apath.com).
HCV-neo replicon cells and replicon cells containing resistance substitutions in the NS5A region were used to test the currently described family of compounds. The compounds were determined to have differing degrees of reduced inhibitory activity on cells containing mutations vs. the corresponding inhibitory potency against wild-type cells. Thus, the compounds of the present disclosure can be effective in inhibiting the function of the HCV NS5A protein and are understood to be as effective in combinations as previously described in application PCT/US2006/022197 and commonly owned WO 04/014852. It should be understood that the compounds of the present disclosure can inhibit multiple genotypes of HCV. […] In one embodiment, compounds of the present disclosure are inhibitory versus 1a, 1b, 2a, 2b, 3a, 4a, and 5a genotypes.
Background: A replicon is a self-replicating genome or part of one, used to study replication in cells.

The mark [1] stands for this setting: read-out: Range (EC50 values against HCV 1b).

Where two headings read alike, the source gives them in different places.

Usually EC50 stands for the concentration giving half of the maximal effect. Consider `COC(=O)N[C@H](C(=O)N1[C@@H]2C[C@@H]2C[C@H]1c1ncc(-c2ccc3nc(-c4ccc5nc([C@@H]6C[C@H]7C[C@H]7N6C(=O)[C@@H](NC(=O)OC)C6CCOCC6)[nH]c5c4)cnc3c2)[nH]1)C1CCOCC1` [Example 53, Methyl((1S)-2-((1R,3S,5R)-3-(4-(2-(2-((1R,3S,5R)-2-((2S)-2-((methoxycarbonyl)amino)-2-(tetrahydro-2H-pyran-4-yl)acetyl)-2-azabicyclo[3.1.0]hex-3-yl)-1H-benzimidazol-5-yl)-6-quinoxalinyl)-1H-imidazol-2-yl)-2-azabicyclo[3.1.0]hex-2-yl)-2-oxo-1-(tetrahydro-2H-pyran-4-yl)ethyl)carbamate], for which the EC50 (read-out: EC50) was determined as 1.81 nM and the EC50 under setting [1] fell in the range of 1.01 to 1000 nM.

Take `COC(=O)N[C@H](C(=O)N1[C@@H]2C[C@@H]2C[C@H]1c1nc2ccc(-c3ccc4nc(-c5ccc6nc([C@@H]7C[C@H]8C[C@H]8N7C(=O)[C@@H](NC(=O)OC)C7CCOCC7)[nH]c6c5)ccc4c3)cc2[nH]1)C1CCOCC1` [Example 39, Dimethyl(2,6-quinolinediylbis(1H-benzimidazole-5,2-diyl(1R,3S,5R)-2-azabicyclo[3.1.0]hexane-3,2-diyl((1S)-2-oxo-1-(tetrahydro-2H-pyran-4-yl)-2,1-ethanediyl)))biscarbamate]: under setting [1], the concentration giving a half-maximal response (EC50) fell in the range of 0.0101 to 1 nM.

`COC(=O)N[C@H](C(=O)N1CCC[C@@H]1c1nc2nc(-c3ccc4cc(-c5cnc6[nH]c([C@@H]7CCCN7C(=O)[C@@H](NC(=O)OC)C(C)C)nc6n5)ccc4c3)cnc2[nH]1)C(C)C` [Example 25A, Methyl((1S)-1-(((2S)-2-(5-(6-(2-((2R)-1-((2S)-2-((methoxycarbonyl)amino)-3-methylbutanoyl)-2-pyrrolidinyl)-1H-imidazo[4,5-b]pyrazin-5-yl)-2-naphthyl)-1H-imidazo[4,5-b]pyrazin-2-yl)-1-pyrrolidinyl)carbonyl)-2-methylpropyl)carbamate]: the EC50 under setting [1] was 1.01 to 1000 nM.

Turning to `COC(=O)N[C@H](C(=O)N1CCC[C@@H]1c1nc2ncc(-c3ccc4cc(-c5cnc6nc([C@@H]7CCCN7C(=O)[C@@H](NC(=O)OC)C(C)C)[nH]c6c5)ccc4c3)cc2[nH]1)C(C)C` [Example 23, Methyl((1S)-1-(((2R)-2-(6-(6-(2-((2S)-1-((2S)-2-((methoxycarbonyl)amino)-3-methylbutanoyl)-2-pyrrolidinyl)-1H-imidazo[4,5-b]pyridin-6-yl)-2-naphthyl)-1H-imidazo[4,5-b]pyridin-2-yl)-1-pyrrolidinyl)carbonyl)-2-methylpropyl)carbamate], the EC50 (read-out: EC50) amounted to 0.888 nM and the EC50 under setting [1] lay within 0.0101 to 1 nM.

Consider `COC(=O)N[C@H](C(=O)N[C@@H](C)c1ncc(-c2ccc(-c3ccc4cc(-c5cnc([C@H](C)NC(=O)[C@@H](NC(=O)OC)C(C)C)[nH]5)ccc4c3)cc2)[nH]1)C(C)C` [Example 124, Methyl((1S)-1-(((1S)-1-(4-(4-(6-(2-((1S)-1-(((2S)-2-((methoxycarbonyl)amino)-3-methylbutanoyl)amino)ethyl)-1H-imidazol-4-yl)-2-naphthyl)phenyl)-1H-imidazol-2-yl)ethyl)carbamoyl)-2-methylpropyl)carbamate], for which the EC50 under setting [1] was 0.0101 to 1 nM.

Take `COC(=O)N[C@H](C(=O)N1[C@@H]2C[C@@H]2C[C@H]1c1nc(Cl)c(-c2ccc3cc(-c4ccc5nc([C@@H]6C[C@H]7C[C@H]7N6C(=O)[C@@H](NC(=O)OC)C6CCOCC6)[nH]c5c4)ccc3c2)[nH]1)C1CCOCC1` [Example 50, Methyl((1S)-2-((1R,3S,5R)-3-(4-chloro-5-(6-(2-((1R,3S,5R)-2-((2S)-2-((methoxycarbonyl)amino)-2-(tetrahydro-2H-pyran-4-yl)acetyl)-2-azabicyclo[3.1.0]hex-3-yl)-1H-benzimidazol-5-yl)-2-naphthyl)-1H-imidazol-2-yl)-2-azabicyclo[3.1.0]hex-2-yl)-2-oxo-1-(tetrahydro-2H-pyran-4-yl)ethyl)carbamate]: the EC50 under setting [1] lay in the range of 0.0101 to 1 nM.

Take `COC(=O)N[C@H](C(=O)N1C[C@@H](C)C[C@H]1c1ncc(-c2ccc(-c3ccc4nc(-c5cnc([C@@H]6C[C@H](C)CN6C(=O)[C@@H](NC(=O)OC)C6CCOCC6)[nH]5)ccc4c3)cc2)[nH]1)C1CCOCC1` [Example 114, Methyl((1S)-2-((2S,4S)-2-(4-(6-(4-(2-((2S,4S)-1-((2S)-2-((methoxycarbonyl)amino)-2-(tetrahydro-2H-pyran-4-yl)acetyl)-4-methyl-2-pyrrolidinyl)-1H-imidazol-4-yl)phenyl)-2-quinolinyl)-1H-imidazol-2-yl)-4-methyl-1-pyrrolidinyl)-2-oxo-1-(tetrahydro-2H-pyran-4-yl)ethyl)carbamate]: the concentration for a half-maximal effect (EC50) under setting [1] was 0.0101 to 1 nM.

Turning to `COC(=O)N[C@H](C(=O)N1CCOC[C@H]1c1nc(-c2ccc(-c3ccc4cc(-c5c[nH]c([C@@H]6COCCN6C(=O)[C@@H](NC(=O)OC)C6CCOCC6)n5)ccc4c3)cc2)c[nH]1)C1CCOCC1` [Example 116, Methyl((1S)-2-((3R)-3-(4-(4-(6-(2-((3R)-4-((2S)-2-((methoxycarbonyl)amino)-2-(tetrahydro-2H-pyran-4-yl)acetyl)-3-morpholinyl)-1H-imidazol-4-yl)-2-naphthyl)phenyl)-1H-imidazol-2-yl)-4-morpholinyl)-2-oxo-1-(tetrahydro-2H-pyran-4-yl)ethyl)carbamate], under setting [1], the concentration giving a half-maximal response (EC50) was 0.0101 to 1 nM.

With `COC(=O)N[C@H](C(=O)N1[C@H](c2ncc(-c3ccc(-c4ccc5cc(-c6cnc([C@@H]7C[C@@H]8C[C@@H]8N7C(=O)[C@@H](NC(=O)OC)C(C)C)[nH]6)ccc5c4)cc3)[nH]2)C[C@@H]2C[C@@H]21)C(C)C` [Example 135, Methyl((1S)-1-(((1S,3S,5S)-3-(4-(4-(6-(2-((1S,3S,5S)-2-((2S)-2-((methoxycarbonyl)amino)-3-methylbutanoyl)-2-azabicyclo[3.1.0]hex-3-yl)-1H-imidazol-4-yl)-2-naphthyl)phenyl)-1H-imidazol-2-yl)-2-azabicyclo[3.1.0]hex-2-yl)carbonyl)-2-methylpropyl)carbamate], the concentration giving a half-maximal response (EC50) under setting [1] was 0.0101 to 1 nM.

Take `COC(=O)N[C@H](C(=O)N1[C@@H]2C[C@@H]2C[C@H]1c1ncc(-c2ccc3cc(C#Cc4cnc([C@@H]5C[C@H]6C[C@H]6N5C(=O)[C@@H](NC(=O)OC)C5CCOCC5)[nH]4)ccc3c2)[nH]1)C(C)C` [Example 96, Methyl((1S)-2-((1R,3S,5R)-3-(4-((6-(2-((1R,3S,5R)-2-((2S)-2-((methoxycarbonyl)amino)-3-methylbutanoyl)-2-azabicyclo[3.1.0]hex-3-yl)-1H-imidazol-4-yl)-2-naphthyl)ethynyl)-1H-imidazol-2-yl)-2-azabicyclo[3.1.0]hex-2-yl)-2-oxo-1-(tetrahydro-2H-pyran-4-yl)ethyl)carbamate]: the EC50 under setting [1] lay in the range of 0.0101 to 1 nM.

As to `COC(=O)N[C@H](C(=O)N1CCC[C@H]1c1nc2ccc(-c3ccc4cc(-c5ccc6nc([C@@H]7CCCN7C(=O)[C@@H](NC(=O)OC)C7CC7)[nH]c6c5)ccc4c3)cc2[nH]1)C1CC1` [Example 11, Dimethyl(2,6-naphthalenediylbis(1H-benzimidazole-5,2-diyl(2S)-2,1-pyrrolidinediyl((1S)-1-cyclopropyl-2-oxo-2,1-ethanediyl)))biscarbamate], the EC50 runs as follows: (read-out: EC50) 0.0182 nM; under setting [1], 0.0101 to 1 nM.

On to `COC(=O)N[C@H](C(=O)N1CCCC[C@H]1c1nc(-c2ccc(-c3ccc4cc(-c5c[nH]c([C@@H]6CCCCN6C(=O)[C@@H](NC(=O)OC)C(C)C)n5)ccc4c3)cc2)c[nH]1)C(C)C` [Example 118, Methyl((1S)-1-(((2S)-2-(4-(4-(6-(2-((2S)-1-((2S)-2-((methoxycarbonyl)amino)-3-methylbutanoyl)-2-piperidinyl)-1H-imidazol-4-yl)-2-naphthyl)phenyl)-1H-imidazol-2-yl)-1-piperidinyl)carbonyl)-2-methylpropyl)carbamate], for which the concentration for a half-maximal effect (EC50) was 0.0374 nM (read-out: EC50) and 0.0101 to 1 nM under setting [1].

Consider `COC(=O)N[C@@H](C(=O)N1CCC[C@H]1c1nc2cc(-c3ccc4ccc(-c5ccc6nc([C@@H]7CCCN7C(=O)[C@H](NC(=O)OC)C(C)C)[nH]c6c5)cc4c3)ccc2[nH]1)C(C)C` [Example 14, Methyl((1R)-1-(((2S)-2-(5-(7-(2-((2S)-1-((2R)-2-((methoxycarbonyl)amino)-3-methylbutanoyl)-2-pyrrolidinyl)-1H-benzimidazol-5-yl)-2-naphthyl)-1H-benzimidazol-2-yl)-1-pyrrolidinyl)carbonyl)-2-methylpropyl)carbamate], for which, under setting [1], the half-maximal effective concentration (EC50) lay within 1.01 to 1000 nM.

In the case of `COC(=O)N[C@H](C(=O)N1[C@@H]2C[C@@H]2C[C@H]1c1ncc(-c2ccc3cc(-c4ccc5nc([C@@H]6C[C@H]7C[C@H]7N6C(=O)[C@@H](NC(=O)OC)C6CCOCC6)[nH]c5c4)ccc3c2)[nH]1)C1CCOCC1` [Example 45, Methyl((1S)-2-((1R,3S,5R)-3-(4-(6-(2-((1R,3S,5R)-2-((2S)-2-((methoxycarbonyl)amino)-2-(tetrahydro-2H-pyran-4-yl)acetyl)-2-azabicyclo[3.1.0]hex-3-yl)-1H-benzimidazol-5-yl)-2-naphthyl)-1H-imidazol-2-yl)-2-azabicyclo[3.1.0]hex-2-yl)-2-oxo-1-(tetrahydro-2H-pyran-4-yl)ethyl)carbamate], under setting [1], the EC50 was 0.0101 to 1 nM.

Turning to `COC(=O)N[C@H](C(=O)N1CCC[C@H]1c1ncc(-c2ccc3cc(-c4cnc([C@@H]5CCCN5C(=O)[C@@H](NC(=O)OC)C(C)C)[nH]4)ccc3c2)[nH]1)C(C)C` [Example 32], the EC50 under setting [1] is 0.0101 to 1 nM.

Take `COC(=O)N[C@H](C(=O)N1[C@@H]2C[C@@H]2C[C@H]1c1ncc(-c2ccc(-c3ccc4nc(-c5cnc([C@@H]6C[C@H]7C[C@H]7N6C(=O)[C@@H](NC(=O)OC)C(C)C)[nH]5)cnc4c3)cc2)[nH]1)C(C)C` [Example 104]: where the note is “read-out: EC50”, the EC50 was 0.00201 nM.
